{"source": "ChEMBL document CHEMBL5678816", "about": "“A Next-Generation TRK Kinase Inhibitor Overcomes Acquired Resistance to Prior TRK Kinase Inhibition in Patients with TRK Fusion-Positive Solid Tumors” (Cancer Discov, 2017)", "key": {"[1]": {"molecular_target": "Serine/threonine-protein kinase DCLK2 (Homo sapiens) (UniProt Q8N568)", "assay": "Inhibition of DCAMKL2 (unknown origin) at 1 uM in presence of ATP relative to control; values are per cent of control"}, "[2]": {"molecular_target": "Proto-oncogene tyrosine-protein kinase Src (Homo sapiens) (UniProt P12931)", "sequence (P12931 2-536 limits assumed)": "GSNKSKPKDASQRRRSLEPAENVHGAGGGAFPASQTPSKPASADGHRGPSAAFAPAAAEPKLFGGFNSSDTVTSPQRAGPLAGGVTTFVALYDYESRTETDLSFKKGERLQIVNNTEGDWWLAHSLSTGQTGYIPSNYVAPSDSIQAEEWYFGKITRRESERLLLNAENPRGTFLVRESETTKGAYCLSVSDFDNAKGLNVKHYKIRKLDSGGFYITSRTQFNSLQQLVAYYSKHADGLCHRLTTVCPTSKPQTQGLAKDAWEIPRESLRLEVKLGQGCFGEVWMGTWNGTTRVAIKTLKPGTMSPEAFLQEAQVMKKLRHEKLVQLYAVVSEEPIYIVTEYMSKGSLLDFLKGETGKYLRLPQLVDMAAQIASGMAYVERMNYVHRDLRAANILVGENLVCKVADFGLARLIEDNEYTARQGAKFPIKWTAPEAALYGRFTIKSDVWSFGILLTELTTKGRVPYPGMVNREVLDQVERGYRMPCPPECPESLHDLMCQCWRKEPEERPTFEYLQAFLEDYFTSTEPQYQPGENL", "assay": "Inhibition of SrC (unknown origin) at 1 uM in presence of ATP relative to control; values are per cent of control"}, "CGTH-W-1": {"test_system": "CGTH-W-1", "assay": "Inhibition of cell proliferation in human CGTH-W-1 cells upto 10 umol/L incubated for 72 hrs by DAPI staining based analysis", "assay_type": "functional", "details": "dose <= 10.0 µmol/L"}, "BFTC-905": {"test_system": "BFTC-905", "assay": "Inhibition of cell proliferation in human BFTC-905 cells upto 10 umol/L incubated for 72 hrs by DAPI staining based analysis", "assay_type": "functional", "details": "dose <= 10.0 µmol/L"}, "MIA PaCa-2": {"test_system": "MIA PaCa-2", "assay": "Inhibition of cell proliferation in human MIA PaCa-2 cells upto 10 umol/L incubated for 72 hrs by DAPI staining based analysis", "assay_type": "functional", "details": "dose <= 10.0 µmol/L"}, "Homo sapiens": {"organism": "Homo sapiens", "assay": "Inhibition of Abl-P (unknown origin) at 1 uM in presence of ATP relative to control; values are per cent of control"}, "[3]": {"molecular_target": "Serine/threonine-protein kinase 17A (Homo sapiens) (UniProt Q9UEE5)", "sequence (Q9UEE5 whole entry)": "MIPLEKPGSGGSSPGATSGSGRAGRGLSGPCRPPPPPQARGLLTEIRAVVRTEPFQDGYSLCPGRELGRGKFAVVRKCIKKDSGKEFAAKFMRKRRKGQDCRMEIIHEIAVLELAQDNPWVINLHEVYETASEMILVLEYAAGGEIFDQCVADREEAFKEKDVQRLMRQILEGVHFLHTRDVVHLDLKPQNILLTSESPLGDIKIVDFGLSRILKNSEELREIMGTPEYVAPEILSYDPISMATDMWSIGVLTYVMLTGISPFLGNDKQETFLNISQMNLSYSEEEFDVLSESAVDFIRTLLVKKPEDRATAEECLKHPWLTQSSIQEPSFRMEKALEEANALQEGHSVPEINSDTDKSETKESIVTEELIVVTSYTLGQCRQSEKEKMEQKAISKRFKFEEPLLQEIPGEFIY", "assay": "Inhibition of DRAK1 (unknown origin) at 1 uM in presence of ATP relative to control; values are per cent of control"}, "[4]": {"molecular_target": "Ephrin type-A receptor 8 (Homo sapiens) (UniProt P29322)", "assay": "Inhibition of EphA8 (unknown origin) at 1 uM in presence of ATP relative to control; values are per cent of control"}, "SCC-9": {"test_system": "SCC-9", "assay": "Inhibition of cell proliferation in human SCC-9 cells upto 10 umol/L incubated for 72 hrs by DAPI staining based analysis", "assay_type": "functional", "details": "dose <= 10.0 µmol/L"}, "[5]": {"assay": "Clearance in monkey at 1 mg/kg, iv administered as 20% hydroxypropyl-beta-cyclodextrin formulation by LC-MS analysis", "assay_type": "ADME, organism-based, Macaca mulatta", "details": "rhesus monkey, in vivo"}, "[6]": {"assay": "Inhibition of cell proliferation in MPRIP-NTRK1 fusion positive human CUTO-3 cells incubated for 72 hrs by DAPI staining based analysis", "assay_type": "functional", "details": "CUTO-3, 72 h"}, "[7]": {"molecular_target": "AMP-activated protein kinase (AMPK) alpha-1/beta-1/gamma-1 (Homo sapiens) (UniProt P54619+Q9Y478+Q13131)", "assay": "Inhibition of AMPK alpha1/beta1/gamma1 (unknown origin) at 1 uM in presence of ATP relative to control; values are per cent of control"}, "SNU-16": {"test_system": "SNU-16", "assay": "Inhibition of cell proliferation in human SNU-16 cells upto 10 umol/L incubated for 72 hrs by DAPI staining based analysis", "assay_type": "functional", "details": "dose <= 10.0 µmol/L"}, "[8]": {"molecular_target": "Serine/threonine-protein kinase TAO2 (Homo sapiens) (UniProt Q9UL54)", "sequence (Q9UL54 whole entry)": "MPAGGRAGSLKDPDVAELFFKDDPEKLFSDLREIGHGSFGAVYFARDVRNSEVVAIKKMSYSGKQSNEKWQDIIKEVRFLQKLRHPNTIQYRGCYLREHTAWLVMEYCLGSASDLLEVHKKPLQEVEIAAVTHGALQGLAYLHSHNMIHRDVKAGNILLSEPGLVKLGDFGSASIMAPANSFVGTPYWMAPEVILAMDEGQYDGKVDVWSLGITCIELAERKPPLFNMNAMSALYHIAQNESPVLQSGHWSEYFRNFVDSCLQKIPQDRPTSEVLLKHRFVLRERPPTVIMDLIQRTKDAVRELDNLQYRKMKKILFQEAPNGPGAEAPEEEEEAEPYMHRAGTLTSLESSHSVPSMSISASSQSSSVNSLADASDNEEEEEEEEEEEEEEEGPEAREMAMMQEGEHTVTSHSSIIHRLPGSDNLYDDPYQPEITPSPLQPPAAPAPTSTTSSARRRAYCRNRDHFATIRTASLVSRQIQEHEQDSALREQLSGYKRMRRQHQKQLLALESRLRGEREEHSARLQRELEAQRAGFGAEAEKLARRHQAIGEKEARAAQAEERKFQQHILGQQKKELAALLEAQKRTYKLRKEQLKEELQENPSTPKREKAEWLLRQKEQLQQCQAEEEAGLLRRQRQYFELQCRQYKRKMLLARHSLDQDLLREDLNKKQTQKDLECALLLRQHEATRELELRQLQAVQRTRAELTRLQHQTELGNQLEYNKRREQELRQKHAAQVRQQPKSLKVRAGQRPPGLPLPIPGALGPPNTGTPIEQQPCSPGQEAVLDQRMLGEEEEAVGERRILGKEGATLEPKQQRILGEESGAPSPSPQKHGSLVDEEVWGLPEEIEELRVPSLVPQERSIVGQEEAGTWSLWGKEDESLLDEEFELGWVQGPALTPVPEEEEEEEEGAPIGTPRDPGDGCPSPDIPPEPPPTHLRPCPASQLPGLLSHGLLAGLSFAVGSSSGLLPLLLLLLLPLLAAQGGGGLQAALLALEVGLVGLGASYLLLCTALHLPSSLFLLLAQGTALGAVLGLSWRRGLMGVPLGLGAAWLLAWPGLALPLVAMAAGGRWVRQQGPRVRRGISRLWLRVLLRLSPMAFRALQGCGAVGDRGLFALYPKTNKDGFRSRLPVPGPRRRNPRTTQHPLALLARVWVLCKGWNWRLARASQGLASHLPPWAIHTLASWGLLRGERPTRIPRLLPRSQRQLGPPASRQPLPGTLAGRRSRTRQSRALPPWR", "assay": "Inhibition of TAO2 (unknown origin) at 1 uM in presence of ATP relative to control; values are per cent of control"}, "[9]": {"assay": "Clearance in dog at 1 mg/kg, iv administered as 20% hydroxypropyl-beta-cyclodextrin formulation by LC-MS analysis", "assay_type": "ADME, organism-based, Canis lupus familiaris", "details": "in vivo"}, "[10]": {"molecular_target": "Death-associated protein kinase 2 (Homo sapiens) (UniProt Q9UIK4)", "sequence (Q9UIK4 whole entry, looked up)": "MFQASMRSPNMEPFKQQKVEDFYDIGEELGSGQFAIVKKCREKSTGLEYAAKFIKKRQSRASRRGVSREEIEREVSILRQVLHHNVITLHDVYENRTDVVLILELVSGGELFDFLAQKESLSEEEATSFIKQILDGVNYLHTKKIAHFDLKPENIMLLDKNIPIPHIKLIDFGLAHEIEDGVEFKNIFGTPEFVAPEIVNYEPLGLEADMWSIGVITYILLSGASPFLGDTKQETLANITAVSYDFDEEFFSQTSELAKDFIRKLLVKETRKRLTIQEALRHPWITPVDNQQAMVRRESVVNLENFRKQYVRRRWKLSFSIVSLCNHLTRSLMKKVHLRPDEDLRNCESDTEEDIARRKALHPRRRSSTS", "assay": "Inhibition of DAPK2 (unknown origin) at 1 uM in presence of ATP relative to control; values are per cent of control"}, "L-428": {"test_system": "L-428", "assay": "Inhibition of cell proliferation in human L428 cells upto 10 umol/L incubated for 72 hrs by DAPI staining based analysis", "assay_type": "functional", "details": "dose <= 10.0 µmol/L"}, "[11]": {"molecular_target": "Serine/threonine-protein kinase PAK 6 (Homo sapiens) (UniProt Q9NQU5)", "assay": "Inhibition of PAK6 (unknown origin) at 1 uM in presence of ATP relative to control; values are per cent of control"}, "[12]": {"molecular_target": "Glycogen synthase kinase-3 alpha (Homo sapiens) (UniProt P49840)", "assay": "Inhibition of GSK3alpha (unknown origin) at 1 uM in presence of ATP relative to control; values are per cent of control"}, "[13]": {"molecular_target": "Tyrosine-protein kinase ABL2 (Homo sapiens) (UniProt P42684)", "sequence (P42684 whole entry)": "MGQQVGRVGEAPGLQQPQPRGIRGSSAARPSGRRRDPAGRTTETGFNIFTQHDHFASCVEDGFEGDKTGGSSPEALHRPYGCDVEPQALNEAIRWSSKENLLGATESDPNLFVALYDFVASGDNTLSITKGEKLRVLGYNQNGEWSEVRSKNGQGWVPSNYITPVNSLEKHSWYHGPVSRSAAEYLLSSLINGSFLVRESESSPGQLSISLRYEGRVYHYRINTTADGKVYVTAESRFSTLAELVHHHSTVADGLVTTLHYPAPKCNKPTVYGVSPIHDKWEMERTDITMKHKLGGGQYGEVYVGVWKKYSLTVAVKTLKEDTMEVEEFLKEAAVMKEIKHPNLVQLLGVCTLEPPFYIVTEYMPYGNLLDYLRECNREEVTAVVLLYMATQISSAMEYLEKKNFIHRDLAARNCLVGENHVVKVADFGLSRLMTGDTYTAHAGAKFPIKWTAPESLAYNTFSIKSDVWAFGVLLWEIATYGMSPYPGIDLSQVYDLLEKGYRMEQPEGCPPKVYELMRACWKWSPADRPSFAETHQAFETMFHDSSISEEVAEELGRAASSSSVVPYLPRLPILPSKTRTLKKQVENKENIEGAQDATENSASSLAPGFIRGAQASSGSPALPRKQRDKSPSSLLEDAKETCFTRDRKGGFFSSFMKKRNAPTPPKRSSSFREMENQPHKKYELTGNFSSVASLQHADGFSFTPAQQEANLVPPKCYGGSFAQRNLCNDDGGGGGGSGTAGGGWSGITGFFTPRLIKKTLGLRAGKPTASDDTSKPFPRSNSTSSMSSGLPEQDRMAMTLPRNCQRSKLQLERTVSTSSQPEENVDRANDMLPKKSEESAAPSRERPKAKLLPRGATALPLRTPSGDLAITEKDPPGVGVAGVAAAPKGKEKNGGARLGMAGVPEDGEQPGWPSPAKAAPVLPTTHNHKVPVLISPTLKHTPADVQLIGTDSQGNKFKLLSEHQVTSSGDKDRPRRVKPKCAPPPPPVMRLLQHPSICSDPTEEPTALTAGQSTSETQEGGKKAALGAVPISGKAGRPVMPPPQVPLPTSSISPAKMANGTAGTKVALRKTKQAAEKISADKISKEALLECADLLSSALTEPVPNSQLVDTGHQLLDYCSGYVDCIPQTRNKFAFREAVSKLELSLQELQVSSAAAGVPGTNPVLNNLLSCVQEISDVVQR", "assay": "Inhibition of Abl2 (unknown origin) at 1 uM in presence of ATP relative to control; values are per cent of control"}, "[14]": {"molecular_target": "Rhodopsin kinase GRK7 (Homo sapiens) (UniProt Q8WTQ7)", "assay": "Inhibition of GRK7 (unknown origin) at 1 uM in presence of ATP relative to control; values are per cent of control"}, "[15]": {"molecular_target": "Serine/threonine-protein kinase PLK1 (Homo sapiens) (UniProt P53350)", "assay": "Inhibition of Plk1 (unknown origin) at 1 uM in presence of ATP relative to control; values are per cent of control"}, "[16]": {"assay": "Cmin in adult patient with recurrent LMNA-NTRK1 rearranged colorectal cancer at 50 mg administered twice a day as powder-in-capsule or liquid formulation for 1 day and measured 10 hrs post dose by LC-MS/MS analysis", "assay_type": "ADME", "details": "human, in vivo, po, read-out: Cmin"}, "CML-T1": {"test_system": "CML-T1", "assay": "Inhibition of cell proliferation in human CML-T1 cells upto 10 umol/L incubated for 72 hrs by DAPI staining based analysis", "assay_type": "functional", "details": "dose <= 10.0 µmol/L"}, "[17]": {"molecular_target": "Cyclin-dependent kinase 5/CDK5 activator 1 (Homo sapiens) (UniProt Q00535+Q15078)", "assay": "Inhibition of CDK5/p25 (unknown origin) at 1 uM in presence of ATP relative to control; values are per cent of control"}, "[18]": {"molecular_target": "Serine/threonine-protein kinase Nek3 (Homo sapiens) (UniProt P51956)", "sequence (P51956 whole entry)": "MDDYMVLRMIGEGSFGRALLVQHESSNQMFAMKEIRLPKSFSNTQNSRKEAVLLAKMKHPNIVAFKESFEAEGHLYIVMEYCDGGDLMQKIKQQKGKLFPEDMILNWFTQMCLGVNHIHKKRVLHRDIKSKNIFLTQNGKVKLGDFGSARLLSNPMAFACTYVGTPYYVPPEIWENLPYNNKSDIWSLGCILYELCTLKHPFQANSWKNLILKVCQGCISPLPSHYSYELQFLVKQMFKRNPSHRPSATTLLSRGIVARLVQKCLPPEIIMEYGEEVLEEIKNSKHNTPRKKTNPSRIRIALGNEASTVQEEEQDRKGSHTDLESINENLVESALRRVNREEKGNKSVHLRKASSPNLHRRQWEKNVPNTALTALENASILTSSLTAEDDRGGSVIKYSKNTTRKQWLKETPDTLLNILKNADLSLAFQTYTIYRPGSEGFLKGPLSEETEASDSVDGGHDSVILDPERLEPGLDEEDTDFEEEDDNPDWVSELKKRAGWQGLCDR", "assay": "Inhibition of NEK3 (unknown origin) at 1 uM in presence of ATP relative to control; values are per cent of control"}, "[19]": {"molecular_target": "SRSF protein kinase 2 (Homo sapiens) (UniProt P78362)", "sequence (P78362 whole entry, looked up)": "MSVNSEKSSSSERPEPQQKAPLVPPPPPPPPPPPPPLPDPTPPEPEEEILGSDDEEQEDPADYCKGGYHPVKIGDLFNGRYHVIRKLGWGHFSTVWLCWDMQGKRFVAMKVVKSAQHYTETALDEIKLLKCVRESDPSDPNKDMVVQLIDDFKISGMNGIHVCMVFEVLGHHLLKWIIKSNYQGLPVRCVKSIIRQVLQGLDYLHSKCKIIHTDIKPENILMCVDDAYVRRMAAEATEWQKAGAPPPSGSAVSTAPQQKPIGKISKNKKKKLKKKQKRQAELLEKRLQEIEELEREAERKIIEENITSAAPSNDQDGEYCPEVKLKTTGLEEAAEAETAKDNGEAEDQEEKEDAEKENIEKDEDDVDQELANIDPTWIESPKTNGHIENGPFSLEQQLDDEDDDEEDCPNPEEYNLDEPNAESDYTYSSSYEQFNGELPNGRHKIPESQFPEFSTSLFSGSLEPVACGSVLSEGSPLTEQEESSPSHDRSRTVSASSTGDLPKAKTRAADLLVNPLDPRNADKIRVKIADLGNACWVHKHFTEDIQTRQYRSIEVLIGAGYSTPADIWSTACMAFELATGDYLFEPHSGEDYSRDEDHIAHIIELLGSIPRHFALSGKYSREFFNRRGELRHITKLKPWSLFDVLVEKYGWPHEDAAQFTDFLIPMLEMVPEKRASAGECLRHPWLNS", "assay": "Inhibition of SRPK2 (unknown origin) at 1 uM in presence of ATP relative to control; values are per cent of control"}, "[20]": {"molecular_target": "FKBP12A/mTOR (Homo sapiens) (UniProt P62942+P42345)", "sequence (P62942 2-108 limits assumed, other chains not shown)": "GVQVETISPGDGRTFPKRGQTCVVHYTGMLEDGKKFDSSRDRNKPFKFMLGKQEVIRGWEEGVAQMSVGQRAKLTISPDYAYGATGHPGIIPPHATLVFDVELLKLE", "assay": "Inhibition of mTOR/FKBP12 (unknown origin) at 1 uM in presence of ATP relative to control; values are per cent of control"}, "SK-N-FI": {"test_system": "SK-N-FI", "assay": "Inhibition of cell proliferation in human SK-N-FI cells upto 10 umol/L incubated for 72 hrs by DAPI staining based analysis", "assay_type": "functional", "details": "dose <= 10.0 µmol/L"}, "[21]": {"assay": "AUC in pediatric patient with recurrent ETV6-NTRK3-rearranged infantile fibrosarcoma at 60 mg administered twice a day as liquid formulation for 8 day by LC-MS/MS analysis", "assay_type": "ADME", "details": "human, in vivo"}}, "note": "Calls of active or inactive are those of the source. The rule behind the calls is not given here.", "data": [{"smiles": "C[C@@H]1CCc2ncc(F)cc2[C@H]2CCCN2c2ccn3ncc(c3n2)C(=O)N1", "note": "[SELITRECTINIB]", "values": [{"measurement": "residual activity", "setting": "[1]", "result": 140, "unit": "%"}, {"measurement": "residual activity", "setting": "[2]", "result": 102, "unit": "%"}, {"measurement": "inhibition", "setting": "CGTH-W-1", "result": "inactive"}, {"measurement": "inhibition", "setting": "BFTC-905", "result": "inactive"}, {"measurement": "inhibition", "setting": "MIA PaCa-2", "result": "inactive"}, {"measurement": "residual activity", "setting": "Homo sapiens", "result": 87, "unit": "%"}, {"measurement": "residual activity", "setting": "[3]", "result": 113, "unit": "%"}, {"measurement": "residual activity", "setting": "[4]", "result": 81.5, "unit": "%"}, {"measurement": "inhibition", "setting": "SCC-9", "result": "inactive"}, {"measurement": "clearance", "setting": "[5]", "result": 23.3, "unit": "mL/min/kg"}, {"measurement": "IC50", "setting": "[6]", "result": "≤ 5", "unit": "nM"}, {"measurement": "residual activity", "setting": "[7]", "result": 96.5, "unit": "%"}, {"measurement": "inhibition", "setting": "SNU-16", "result": "inactive"}, {"measurement": "residual activity", "setting": "[8]", "result": 104, "unit": "%"}, {"measurement": "clearance", "setting": "[9]", "result": 12.8, "unit": "mL/min/kg"}, {"measurement": "residual activity", "setting": "[10]", "result": 94, "unit": "%"}, {"measurement": "inhibition", "setting": "L-428", "result": "inactive"}, {"measurement": "residual activity", "setting": "[11]", "result": 99, "unit": "%"}, {"measurement": "residual activity", "setting": "[12]", "result": 117, "unit": "%"}, {"measurement": "residual activity", "setting": "[13]", "result": 105, "unit": "%"}, {"measurement": "residual activity", "setting": "[14]", "result": 70.5, "unit": "%"}, {"measurement": "residual activity", "setting": "[15]", "result": 104, "unit": "%"}, {"measurement": "concentration at 34 h", "setting": "[16]", "result": 1.86, "unit": "ng/mL"}, {"measurement": "inhibition", "setting": "CML-T1", "result": "inactive"}, {"measurement": "residual activity", "setting": "[17]", "result": 98.5, "unit": "%"}, {"measurement": "residual activity", "setting": "[18]", "result": 110, "unit": "%"}, {"measurement": "residual activity", "setting": "[19]", "result": 93.5, "unit": "%"}, {"measurement": "residual activity", "setting": "[20]", "result": 102, "unit": "%"}, {"measurement": "inhibition", "setting": "SK-N-FI", "result": "inactive"}, {"measurement": "AUC at 192 h", "setting": "[21]", "result": 2010, "unit": "ng·h/mL"}]}]}
